In patent publication US11608323B2 (SYNGENTA LIMITED, priority 2013, dated 2023):

Columns and labels:
Format in all cases: in vivo
SETFA [1] = test: Post-emergence herbicidal activity, glasshouse pot test; conditions: Setaria faberi; application post-emergence; rate 1000 g/Ha; evaluated after 13 days
Procedure, shortened: (§1)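 Foliar application to 8-day-old plants using a 0.5% Tween 20 acetone/water carrier; phytotoxicity is scored visually from 0 to 5 after 13 days of growth at 24/16 °C day/night.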

ABUTH [2] = test: as above; conditions: Abutilon theophrasti; application post-emergence; rate 1000 g/Ha; evaluated after 13 days
Procedure, shortened: as §1

ALOMY [3] = test: as above; conditions: Alopecurus myosuroides; application post-emergence; rate 1000 g/Ha; evaluated after 13 days
Procedure, shortened: as §1

ECHCG [4] = test: as above; conditions: Echinochloa crus-galli; application post-emergence; rate 1000 g/Ha; evaluated after 13 days
Procedure, shortened: as §1

ZEAMX [5] = test: as above; conditions: Zea mays; application post-emergence; rate 1000 g/Ha; evaluated after 13 days
Procedure, shortened: as §1

AMARE [6] = test: as above; conditions: Amaranthus retroflexus; application post-emergence; rate 1000 g/Ha; evaluated after 13 days
Procedure, shortened: as §1

SETFA [7] = test: Pre-emergence herbicidal activity, glasshouse pot test; conditions: rate 1000 g/Ha, evaluated after 13 days, scale 0-5
Procedure, shortened: (§2)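 Damage rated 13 days post-treatment on a 0-5 scale, 5 meaning total plant damage. Pots were sprayed pre-emergence, one day after sowing, with an acetone/water-derived aqueous spray containing 0.5% Tween 20. Plants grew under 14 h light, 65% humidity, 24/16 °C, watered twice daily.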

ABUTH [8] = test: as above; conditions: rate 1000 g/Ha, evaluated after 13 days, scale 0-5
Procedure, shortened: as §2

ALOMY [9] = test: as above; conditions: rate 1000 g/Ha, evaluated after 13 days, scale 0-5
Procedure, shortened: as §2

ECHCG [10] = test: as above; conditions: rate 1000 g/Ha, evaluated after 13 days, scale 0-5
Procedure, shortened: as §2

ZEAMX [11] = test: as above; conditions: rate 1000 g/Ha, evaluated after 13 days, scale 0-5
Procedure, shortened: as §2

AMARE [12] = test: as above; conditions: rate 1000 g/Ha, evaluated after 13 days, scale 0-5
Procedure, shortened: as §2

Row | SMILES | Post-emergence herbicidal activity SETFA (damage score 0-5) (SETFA [1]) | Post-emergence herbicidal activity ABUTH (damage score 0-5) (ABUTH [2]) | Post-emergence herbicidal activity ALOMY (damage score 0-5) (ALOMY [3]) | Post-emergence herbicidal activity ECHCG (damage score 0-5) (ECHCG [4]) | Post-emergence herbicidal activity ZEAMX (damage score 0-5) (ZEAMX [5]) | Post-emergence herbicidal activity AMARE (damage score 0-5) (AMARE [6]) | SETFA damage score, application pre-emergence (SETFA [7]) | ABUTH damage score, application pre-emergence (ABUTH [8]) | ALOMY damage score, application pre-emergence (ALOMY [9]) | ECHCG damage score, application pre-emergence (ECHCG [10]) | ZEAMX damage score, application pre-emergence (ZEAMX [11]) | AMARE damage score, application pre-emergence (AMARE [12])
1 | CON1C(=O)N(c2cc(C(F)(F)F)c(Cl)cn2)C(O)C1C (stereo not drawn) [Compound A50] | 5 | 5 | 5 | 5 | 5 | 5 | 4 | 5 | 4 | 5 | 2 | 5
2 | CCOC1C(O)N(c2cc(C(F)(F)F)c(C)cn2)C(=O)N1C (stereo not drawn) [Compound A52] | 5 | 5 | 5 | 5 | 5 | 5 | 4 | 5 | 4 | 5 | 2 | 5
3 | CCOC1C(O)N(c2cc(C(F)(F)F)c(Cl)cn2)C(=O)N1C (stereo not drawn) [Compound A53] | 5 | 5 | 5 | 5 | 3 | 5 | 4 | 5 | 4 | 4 | 2 | 5
4 | CCOC1C(O)N(c2cc(C(C)(F)F)ccn2)C(=O)N1C (stereo not drawn) [Compound A59] | 5 | 5 | 5 | 5 | 4 | 5 | 3 | 5 | 4 | 3 | 1 | 5
5 | CC1C(O)N(c2cc(C(C)(F)F)ccn2)C(=O)N1C (stereo not drawn) [Compound A60] | 3 | 5 | 4 | 4 | 3 | 5 | 1 | 5 | 1 | 1 | 0 | 5
6 | CCOC1C(O)N(c2cc(C(C)(C)F)ccn2)C(=O)N1C (stereo not drawn) [Compound A61] | 5 | 5 | 5 | 5 | 3 | 5 | 1 | 5 | 4 | 4 | 1 | 5
